Entries after “also recorded” stand apart in the source; their conditions may differ. Like-named read-outs stand apart in the source and are kept apart here.
What was measured:
[1] = system: c-fos SRE activation in CHO cells stably expressing D2R; experiment: SRE-luciferase reporter assay, quinpirole-stimulated c-fos SRE activation in CHO-D2R cells; type: cell-based, Chinese hamster
Erk1/2 phosphorylation = experiment: Western blot of phospho-Erk1/2 in CHO-D2R cells; type: cell-based, Chinese hamster; conditions: 25 nM PD098059, 30 minutes before 100 nM quinpirole, 5 min
Protocol: Cell lysates were prepared by incubating cells for 5 minutes on ice with a lysis buffer containing […] NaCl, 50 mM Tris, pH 7.5, 5 mM EDTA, 1% Triton, and a mixture of protease inhibitors. Cells were then scraped off plates and sonicated. The detergent-insoluble material was removed by microcentrifugation for 10 minutes at 4° C. An equal amount of protein was run on SDS gels (Novex, Carlsbad, Calif.) and transferred to nitrocellulose (Bio-Rad, Hercules, Calif.). […] The membrane was washed, incubated for 1 hour in TBS containing appropriate HRP-conjugated secondary antibodies, washed again, and developed with the ECL reagent (Amersham Pharmacia Biotech, Piscataway, N.J.).

[2] = transfection of dominant-negative Rho family mutant or C3 (3 μg), 100 nM quinpirole

Question: Which results are given for `COc1cccc(-c2cc(=O)c3ccccc3o2)c1N` [PD098059, reference compound]?
Answer: effect on quinpirole-stimulated SRE activation ([1]; 25 nM PD098059, 100 nM quinpirole): only partially suppressed; also recorded: inhibited; diminution of quinpirole-stimulated SRE activity ([1]; 25 nM PD098059, 100 nM quinpirole, compared to vehicle): about 50%; effect on quinpirole-stimulated Erk1/2 phosphorylation (Erk1/2 phosphorylation): completely suppressed; also recorded: inhibited

Question: How did the “effect on quinpirole-stimulated SRE activation” value ([1]; 50 nM wortmannin, 100 nM quinpirole) turn out when `COC[C@H]1OC(=O)c2coc3c2[C@@]1(C)C1=C(C3=O)[C@@H]2CCC(=O)[C@@]2(C)C[C@H]1OC(C)=O` [wortmannin, reference compound] was run?
Answer: no effect

Question: With “CdcN17: dominant-negative mutant of Cdc42, Thr17 substituted with Asn” as the compound, how does the “effect on quinpirole-stimulated SRE activation” value [1, 2] read?
Answer: suppressed

Question: With “RhoN19: dominant-negative mutant of RhoA, Thr19 substituted with Asn” as the compound, how does the “effect on quinpirole-stimulated SRE activation” value [1, 2] read?
Answer: suppressed

Question: How did the “effect on quinpirole-stimulated SRE activation” value [1] turn out when pertussis toxin [reference compound] was run?
Answer: completely abolished; also recorded: abrogated

— patent US20030119716A1, “Methods for screening, treating and diagnosing G-protein coupled receptor-related disorders and compositions thereof” (Wyeth, priority 2001, published 2003)
